Reference: PMC12142043, “Cell-based high-content approach for SARS-CoV-2 neutralization identifies unique monoclonal antibodies and PI3K pathway inhibitors” (Frontiers in Cell and Developmental Biology, 2025)

Tested on: SARS-CoV-2 (USA-WA1/2020) in Calu-3 cells
Type: cell-based
Settings: Calu-3, 48 h; for dsRNA signal, AU High: high dose (10 µM); for dsRNA signal, AU Low: low dose (100 nM)

SMILES | dsRNA signal, AU High | dsRNA signal, AU Low
c1cc(Nc2cc(C3CC3)[nH]n2)nc(Nc2ccc3nc[nH]c3c2)n1 [APY29] | 1195.6 AU | 15781.0 AU
COc1ccc(CNC(=O)Nc2ncc([N+](=O)[O-])s2)cc1 [AR-A014418] | 79.4 AU | 22152.5 AU
N#CC(c1ccnc(NCCc2cccnc2)n1)c1nc2ccccc2s1 (stereo not drawn) [AS601245] | 18398.2 AU | 6237.2 AU
O=C1NC(=O)/C(=C\c2ccc3nccnc3c2)S1 [AS-605240] | 11785.5 AU | 49405.3 AU
COc1cc(N2CCC(N3CCN(C)CC3)CC2)ccc1Nc1ncnc(Nc2ccccc2S(=O)(=O)C(C)C)n1 [ASP3026] | 11916.3 AU | 27995.4 AU
CCN1CCN(Cc2ccc(NC(=O)Nc3ccc(Oc4cc(NC)ncn4)cc3)cc2C(F)(F)F)CC1 [AST 487] | 7505.2 AU | 5709.8 AU
Cl.O=C(NC1CCNCC1)c1[nH]ncc1NC(=O)c1c(Cl)cccc1Cl [AT7519 Hydrochloride] | 0.0 AU | 18031.2 AU
Clc1ccc(C2(c3ccc(-c4cn[nH]c4)cc3)CCNCC2)cc1 [AT7867] | 150.0 AU | 6554.9 AU
C=CC(=O)Nc1cccc(Nc2nc(Nc3ccc(OCCOC)cc3)ncc2F)c1 [AVL-292] | 20034.7 AU | 9433.9 AU
N#Cc1ccc2[nH]c(O)c(-c3ccc(CN4CCOCC4)cn3)c2c1 [AZD1080] | 30210.5 AU | 12322.5 AU
CC(C)n1c(=O)n(C)c2cnc3cc(F)c(-c4ccc(OCCCN5CCCCC5)nc4)cc3c21 [AZD1390] | 7959.8 AU | 37767.2 AU
CNC(=O)c1cccc(-c2ccc3c(N4CCOC[C@@H]4C)nc(N4CCOC[C@@H]4C)nc3n2)c1 [AZD2014] | 4130.5 AU | 12584.4 AU
CN1CCN(S(=O)(=O)c2ccc(-c3cnc(N)c(C(=O)Nc4cccnc4)n3)cc2)CC1 [AZD2858] | 10014.5 AU | 6684.6 AU
Cc1noc(C)c1-c1ccc(-c2cc(C(N)=O)c(NC(N)=O)s2)c(O[C@H]2CCNC2)c1 [AZD3264] | 223.2 AU | 47155.4 AU
Cn1cnc2c(F)c(Nc3ccc(Br)cc3Cl)c(C(=O)NOCCO)cc21 [AZD6244 (Selumetinib)] | 7299.3 AU | 3732.5 AU
C[C@@H]1COCCN1c1cc(C2([S@](C)(=N)=O)CC2)nc(-c2cc[nH]c3nccc2-3)n1 [AZD6738] | 290.6 AU | 16844.7 AU
COc1ccc(-c2ccc3c(N4CCOC[C@@H]4C)nc(N4CCOC[C@@H]4C)nc3n2)cc1CO [AZD8055] | 0.0 AU | 39910.8 AU
C[C@@H](Nc1cc(F)cc(F)c1)c1cc(C(=O)N(C)C)cc2c(=O)cc(N3CCOCC3)oc12 [AZD8186] | 4769.3 AU | 35908.0 AU
Cc1cc(C(=O)NOCCO)c(Nc2ccc(I)cc2F)n(C)c1=O [AZD8330] | 29149.3 AU | 63631.5 AU
COc1cc(N2CCC(N)CC2)ccc1Nc1ncc(Cl)c(-c2c[nH]c3ccccc23)n1 [AZD-3463] | 9390.1 AU | 40804.7 AU
Cc1ncc(-c2ccnc(Nc3ccc(S(C)(=O)=O)cc3)n2)n1C(C)C [AZD-5438] | 10643.7 AU | 32871.5 AU
CN(C)C/C=C/C(=O)Nc1cc2c(Nc3ccc(F)c(Cl)c3)ncnc2cc1O[C@H]1CCOC1 [Afatinib (BIBW2992)] | 1924.8 AU | 12314.4 AU
CN(C)C/C=C/C(=O)Nc1cc2c(Nc3ccc(F)c(Cl)c3)ncnc2cc1O[C@H]1CCOC1 [Afatinib dimaleate] | 15371.8 AU | 40279.2 AU
O=C(Nc1cc(Oc2cc(F)c(NC(=O)C3(C(=O)Nc4ccc(F)cc4)CC3)cc2F)ccn1)C1CC1 [Altiratinib] | 7645.1 AU | 34585.3 AU
CC(C)c1ccc2oc3nc(N)c(C(=O)O)cc3c(=O)c2c1 [Amlexanox] | 17956.6 AU | 28672.3 AU
S=C(NCc1ccc2c(c1)OCO2)N1CCN(c2ncnc3c2oc2ccccc23)CC1 [Amuvatinib (MP-470, HPK 56)] | 6649.7 AU | 32179.3 AU
COc1ccc(C[C@H]2NC[C@H](O)[C@H]2OC(C)=O)cc1 [Anisomycin] | 20082.7 AU | 2629.3 AU
N#CC1(c2ccc(NC(=O)c3cccnc3NCc3ccncc3)cc2)CCCC1 [Apatinib] | 181.1 AU | 36614.7 AU
O=c1cc(-c2ccc(O)cc2)oc2cc(O)cc(O)c12 [Apigenin] | 1738.8 AU | 15810.5 AU
C[C@@H]1CC[C@H]2[C@@H](C)C(=O)O[C@@H]3O[C@@]4(C)CC[C@@H]1[C@]32OO4 [Artemisinine] | 2826.9 AU | 35035.3 AU
